Counter-ions that a name gives are not always drawn. Like-named read-outs stand apart in the source and are kept apart here.
What was measured:
[1] = test system: C. parvum HNJ-1 strain; assay: In vitro C. parvum growth inhibition assay (Sporo-Glo staining, fluorescence microscopy count in infected HCT-8 cells); assay type: cell-based, Cryptosporidium parvum; settings: for inhibition at 1 µM / EC50: Cryptosporidium parvum; for inhibition at 1 µM: read-out: Parasite inhibition (%); for EC50: read-out: EC50 value; for Selectivity index: ratio of CC50 (HCT-8) / EC50 (C. parvum)
Procedure: The primary screening of compounds for C. parvum was performed as follows: HCT-8 cells were seeded in 96-well plates at a density of 2 × 10^4 cells/well and allowed to grow overnight. Before infecting cells, Cryptosporidium oocysts were excysted to sporozoites. 87 compounds were tested against C. parvum at a single concentration of 1 μM. Each compound was tested once. Infected HCT-8 cells and uninfected HCT-8 cells were used as positive and negative controls, respectively, in medium containing 0.1% DMSO. Nitazoxanide was used as a standard comparative drug. In vitro inhibition assays were carried out as previously described. Briefly, oocysts were suspended in 1 ml of 0.1% sodium hypochlorite in PBS, incubated for 5 min at 4°C, centrifuged for 10 min at 3000 rpm, and washed three times in PBS. The oocysts were then suspended in excystation solution consisting of 0.75% sodium taurocholate and 0.25% trypsin dissolved in 0.1 M phosphate buffer (with 93.4 mM K2HPO4 and 6.5 mM KH2PO4; pH 8.0) and incubated at 37°C for 1 h. The oocyst/sporozoite suspensions were then rinsed in 1 x PBS (with 137 mM NaCl, 2.7 mM KCl, 8 mM Na2HPO4, and 2 mM KH2PO4; pH 7.5) once more before being filtered through a 5-μm pore-size PVDF filter (Millipore, Burlington, MA, USA) with 5 ml syringe to remove the oocyst wall. HCT-8 cells were seeded in 96-well plates (Thermo Fisher Scientific Inc., MA, USA) and incubated overnight. The cells were then infected with C. parvum sporozoites (4 ×10^4 sporozoites/well) containing in RPMI-1640 medium for 3 h. After 3h inoculation, the non-infected parasite or debris were washed with new RPMI-1640 media. At this point, in RPMI-1640 medium containing 1 μM library compounds were added. Infected cells were incubated for an additional 45 h. Following incubation, the infected cells were fixed for 10 minutes in ice-cold 100% methanol at room temperature. Plates were then carefully rinsed 3 times with PBS. The parasite infected cells were then blocked with 1% bovine serum albumin (BSA) in PBS for 30 minutes and then stained with Sporo-Glo (an anti-Cryptosporidium polyclonal antibody) (Waterborne Environmental, Inc., VA, USA) protected from light for 1 h at room temperature. Finally, cells were washed twice with 1 x PBS-T (1 x PBS supplemented with 0.01% Tween). A Keyence BZ-II 9000 was used to capture the images (KEYENCE, Osaka, Japan). The plates were imaged with a HS all-in-one fluorescence microscope using a 20 x objective. The image output was imported into Microsoft excel for data organization and analyses. All C. parvum parasite in the well were counted.
For a second investigation, four selective hit compounds were used to determine the half-maximum inhibitory concentration (EC50). The parasites were treated with various doses of compounds (ranging from 0.008–1 μM). HCT-8 cells (2 × 10^4 cells/well) were grown for 24 h before being infected with 4 × 10^4 C. parvum sporozoites in 96-well plates. […] Sporo-Glo was used for C. parvum staining as described above. Fluorescence microscopy with a Keyence BZ-II 9000 imager was used to count all Cryptosporidium in the wells (KEYENCE, Osaka, Japan). EC50 vales were determined by analyzing dose-response curves made by GraphPad Prism (GraphPad Software, CA, USA).

[2] = Host cell viability assay (Cell-Titer Glo)
Procedure: (§2) HCT-8 cells (4 × 10^4 cells/well) 100 μl were seeded in 96-well plates, cultured for 24 h, and then treated for 48 h with different concentrations of hit compounds (10^1, 1, 10^−1, 10^−2, 10^−3, 10^−4 μM). After a 48-h incubation period, equilibrate the 96-well plates in room temperature (RT) for 30 minutes. Then, equal volume of Cell-Titer Glo (Promega) reagent was added to each treated well, the plate was shaken on an orbital shaker for 2 minutes then incubated for 10 minutes at RT. The luminescence was quantified by the GloMax Navigator plate reader (Promega, Japan) and the cell viability was evaluated as directed by the kit manufacturer. The luminescence signal of control wells containing DMSO was set to 100% cell viability. […] Graph Pad Prism 7.0.1 was used to determine CC50 values.

[3] = for body weight of treated infected mice: initial dose-finding doses, 11 consecutive days (S1 Fig)
Procedure: The growth inhibitory effect of the hit compounds was assessed in a mouse model infected with C. parvum oocysts. In this experiment, four-week-old female SCID mice (Charles River Laboratories, Shizuoka, Japan) were used. In the infected groups, mice were orally inoculated with 1.0 × 10^5 C. parvum oocysts by using sterile gavage needles. Initially, four compounds were tested at different concentrations to figure out the optimum dosages. Six groups of mice were given oral dosages of 50, 25, and 12.5 mg/kg body weight (BW) of two compounds (alisol-A and alisol-B). […] Bufotalin was given orally at three different doses to the other mouse group: 0.1, 0.05, and 0.025 mg/kg BW. […] The positive control group consisted of infected and untreated mice, whereas the negative control group consisted of noninfected and untreated mice. Treatment began on the third day after infection and lasted until the thirteenth day. The body weight and condition were checked every day, and treatment was given based on the body weight. On days 1, 3, 6, 7, 9, 12, 14, fecal samples were taken. The total number of oocysts per gram was calculated after counting the oocysts in the feces using the sugar flotation method. The treated and untreated mice were euthanized by cervical dislocation on day 14, and a thorough necropsy was performed.

[4] = test system: C. parvum HNJ-1 strain; assay: In vivo C. parvum growth inhibition assay (oocyst shedding in feces of infected SCID mice, sugar flotation); parameters: species or system Cryptosporidium parvum; settings: for numbers of oocysts discharged in the feces: 50, 25 and 12.5 mg/kg oral, infected SCID mice; for % of oocysts shedding / % reduction in oocysts shedding: initial dose-finding (S1 Table), 1 mouse; for % reduction in oocyst shedding: SCID mice n=3, vs untreated infected control
[5] = test system: HCT-8 cells; assay: Host cell viability assay (Cell-Titer Glo); settings: HCT-8 cells, 48 h, 1 μM
Procedure: as §2

[6] = test system: C. parvum; assay: Histopathological analysis and immunohistochemistry of ileum of C. parvum-infected mice; assay type: in vivo, Cryptosporidium parvum; parameters: key to severity of C. parvum infection in ileum, Score: -, no oocysts; 1+, mild focal infection; 2+, moderate multifocal infection; 3+, severe diffuse infection; settings: for severity of C. parvum infection in ileum, Score: HE and immunohistochemistry, most severe area, day 14, dose not stated; for reduction of oocysts, histopathological and scanning electron microscopy findings: ileum of infected treated mice (S2 Fig)
Procedure: (§1) We performed a histopathological analysis to evaluate the growth inhibitory effects and toxicity of the hit compounds in C. parvum-infected mice. In brief, ileum was collected, fixed in 10% neutral buffered formalin, and paraffin-embedded. Each section was cut to a thickness of 4 μm for hematoxylin and eosin (HE) staining and immunohistochemistry. Immunohistochemistry (IHC) was performed following standard techniques using the Envision+ system (Agilent Technologies, Inc., Santa Clara, CA) and 3,3-diaminobenzidine (DAB)(Dojindo, Kumamoto, Japan). Anti-Toxoplasma gondii (RH strain) rabbit polyclonal IgG (Abcam, Cambridge, UK) was used as the primary antibody. The antibody cross reacts with C. Parvum. To reduce the endogenous peroxidase activity, the sections were incubated with 3% H2O2 for 5 minutes. Sections were incubated with primary antibodies overnight at 4°C. After washing with PBS with Tween 20 (PBST), sections were incubated with Envision+ single polymer solution (Agilent Technologies Inc.) for 30 minutes at room temperature. Sections were counterstained with Mayer’s hematoxylin. The severity of C. parvum infection was evaluated in the most severe area, and scored from—to 3+ (-, no oocysts; 1+, mild focal infection; 2+, moderate multifocal infection; 3+, severe diffuse infection). Sub-effects of drugs (hepatocellular damage) were evaluated for major histological changes in karyomegaly, hepatocellular hypertrophy, and interstitial fibrosis/inflammation. We also checked the organs (liver, heart, lung, kidney, and intestines) alteration at necropsy whether it has abnormal or normal.

[7] = Liver histology (sub-effects of drugs, hepatocellular damage) in treated mice; assay type: in vivo, SCID mice; settings: HE stain, infected treated mice (S3 Fig)
Procedure: as §1

[8] = 1 μM, 45 h, C. parvum HNJ-1 strain in HCT-8 cells, first screen
[9] = human, HCT-8 cells, Host cell viability (%), 48 h, 1 μM
[10] = human, Host cell viability (%), HCT-8 cells, 48 h, 1 μM

Work on `CC(C)=CCC[C@](C)(O[C@@H]1O[C@H](CO)[C@@H](O)[C@H](O)[C@H]1O)[C@H]1CC[C@]2(C)[C@@H]1[C@H](O)C[C@@H]1[C@@]3(C)CC[C@H](O)C(C)(C)[C@@H]3[C@@H](O[C@@H]3O[C@H](CO)[C@@H](O)[C@H](O)[C@H]3O)C[C@]12C` [Ginsenoside-Rg1] yielded an inhibition at 1 µM [1, 8] of 67.9% and a viability at 48 h, 1 µM [2, 9] of 99.1%.

`COc1cc(CNC(=O)CCCCCCC(C)C)ccc1O` [Dihydrocapsaicin] gave an inhibition at 1 µM [1, 8] of 70.8% and a viability at 48 h, 1 µM [2, 9] of 98.4%.

In the case of `C[C@H](C[C@H](O)[C@H]1OC1(C)C)C1=C2C[C@H](O)[C@H]3[C@@]4(C)CCC(=O)C(C)(C)[C@@H]4CC[C@]3(C)[C@@]2(C)CC1` [Alisol-B], the “adverse effects / death of treated mice” value ([3]; mouse, in vivo) is reported as “died”, the “numbers of oocysts discharged in the feces” value [4] is reported as “no significant reduction” and the “% of oocysts shedding” value ([4]; 12.5 mg/kg BW, 11 days) is reported as 61.3%. For the same compound, the “% reduction in oocysts shedding” value ([4]; 12.5 mg/kg BW, 11 days) was 38.7%, the EC50 ([1]; HCT-8, 45 h) was 79.6 ± 13.8 nM and the inhibition at 1 µM ([1]; HCT-8, 45 h) was 92.9%. The Selectivity index [1] was 460.6, the CC50 at 48 h ([2]; human) was 36700 nM and the viability at 48 h, 1 µM [2, 10] was over 95%. The “Host cell viability (%)” value [5] was 97.6%, the “severity of C. parvum infection in ileum, Score” value (“severity of C. parvum infection” below) [6] was 2+ and the “reduction of oocysts, histopathological and scanning electron microscopy findings” value [6] was “no notable reduction of oocysts”.

In the case of `CN1[C@@H]2CC[C@H]1C[C@@H](OC(=O)C(CO)c1ccccc1)C2` (stereo partly drawn) [Atropine sulfate, reference compound], the “body weight of treated infected mice” value [3] is reported as “not significant”, the “No. of oocysts, Mean” value ([4]; 50 mg/kg BW oral, 11 days, SCID mice n=3, mean of days 3, 6, 7, 9, 12, 14) is reported as 96.6 and the “% reduction in oocyst shedding” value ([4]; 50 mg/kg BW oral, 11 days) is reported as 56.2%. For the same compound, the “No. of oocysts, Mean” value ([4]; 100 mg/kg BW oral, 11 days, SCID mice n=3, mean of days 3, 6, 7, 9, 12, 14) was 91.1, the “% reduction in oocyst shedding” value ([4]; 100 mg/kg BW oral, 11 days) was 58.7% and the “No. of oocysts, Mean” value ([4]; 200 mg/kg BW oral, 11 days (day 3–13 p.i.), SCID mice n=3, mean of oocysts shed on days 3, 6, 7, 9, 12, 14) was 71.1. The “% reduction in oocyst shedding” value ([4]; 200 mg/kg BW oral, 11 days) was 67.8%, the “% of oocysts shedding” value ([4]; 25 mg/kg BW, 11 days) was 75.2% and the “% reduction in oocysts shedding” value ([4]; 25 mg/kg BW, 11 days) was 24.8%. For the same compound, the “% reduction in oocysts shedding” value ([4]; 50 mg/kg BW, 11 days) was 50.9%, the “% of oocysts shedding” value ([4]; 100 mg/kg BW, 11 days) was 45.1% and the “% reduction in oocysts shedding” value ([4]; 100 mg/kg BW, 11 days) was 54.9%. For the same compound, the EC50 ([1]; HCT-8, 45 h) was 254 ± 30.3 nM, the inhibition at 1 µM ([1]; HCT-8, 45 h) was 72.3% and the “histological findings in liver” value [7] was “inflammation”. The “severity of C. parvum infection” value [6] was 2+.

For `C[C@H](C[C@H](O)[C@@H](O)C(C)(C)O)C1=C2C[C@H](O)[C@H]3[C@@]4(C)CCC(=O)C(C)(C)[C@@H]4CC[C@]3(C)[C@@]2(C)CC1` [Alisol-A], the “body weight of treated infected mice” value [3] was “not significant”, the “body weight of treated infected mice” value ([3]; listed as alisol-A) was “no significant difference” and the “adverse effects / death of treated mice” value ([3]; oral, at 50 and 25 mg/kg body weight, infected SCID mice) was “died”. The “numbers of oocysts discharged in the feces” value [4] was “no significant reduction”, the “% of oocysts shedding” value ([4]; 12.5 mg/kg BW, 11 days) was 55.6% and the “% reduction in oocysts shedding” value ([4]; 12.5 mg/kg BW, 11 days) was 44.4%. The EC50 ([1]; HCT-8, C. parvum HNJ-1, 0.008–1 μM, 45 h, mean of three experiments) was 123 ± 6.7 nM, the inhibition at 1 µM [1, 8] was 78.1% and the Selectivity index [1] was 484.4. The CC50 at 48 h ([2]; human, HCT-8 cells) was 59600 nM, the viability at 48 h, 1 µM [2, 9] was over 95% and the “Host cell viability (%)” value [5] was 99.5%. For the same compound, the “severity of C. parvum infection” value [6] was 3+ and the “reduction of oocysts, histopathological and scanning electron microscopy findings” value [6] was “no notable reduction of oocysts”.

In the case of `CC(C)=CC[C@@H](O)C1=CC(=O)c2c(O)ccc(O)c2C1=O` [Shikonin], the inhibition at 1 µM ([1]; HCT-8, 45 h) is reported as 66.2%.

`CC(C)=CCC[C@](C)(O[C@@H]1O[C@H](CO)[C@@H](O)[C@H](O)[C@H]1O)[C@H]1CC[C@]2(C)[C@@H]1[C@H](O)C[C@@H]1[C@@]3(C)CC[C@H](O)C(C)(C)[C@@H]3[C@@H](O[C@@H]3O[C@H](CO)[C@@H](O)[C@H](O)[C@H]3O[C@@H]3O[C@@H](C)[C@H](O)[C@@H](O)[C@H]3O)C[C@]12C` [Ginsenoside-Re] gave an inhibition at 1 µM [1, 8] of 71.2% and a viability at 48 h, 1 µM [2, 9] of 98.7%.

With `CC(=O)O[C@H]1[C@H]2O[C@]23[C@@H]2CC[C@]4(O)C[C@@H](O)CC[C@]4(C)[C@H]2CC[C@]3(C)[C@H]1c1ccc(=O)oc1` [Cinobufotalin] the inhibition at 1 µM ([1]; HCT-8, 45 h) was 70.7% and the viability at 48 h, 1 µM [2, 10] was 97.8%.
